Patent US10980889B1 (Revolution Medicines, Inc., priority 2018, dated 2021)

Tests used:
P-Akt (S473) = experiment: Cell based AlphaLISA assay, inhibition of P-Akt (S473) in MDA-MB-468 cells (mTORC2 substrate); details: Homo sapiens, 4 h, AlphaLisa, two to four hours at 37° C., read-out: pIC50 for Inhibition of mTORC1 and mTORC2 Substrate Phosphorylation p-AKT1/2/3-(S473) (converted)
Procedure, shortened: (§1)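 In MDA-MB-468 cells, phosphorylation of 4EBP1 (Thr37/46), P70S6K (Thr389) and AKT (Ser473) was measured after incubation with inhibitor by AlphaLISA SureFire Ultra on cell lysates, in duplicate. IC50 values came from control-normalized concentration-response regression.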

P-4E-BP1 (T37/46) = experiment: Cell based AlphaLISA assay, inhibition of P-4E-BP1 (T37/46) in MDA-MB-468 cells (mTORC1 substrate); details: Homo sapiens, 4 h, AlphaLisa, two to four hours at 37° C., read-out: pIC50 for Inhibition of mTORC1 and mTORC2 Substrate Phosphorylation P-4E-BP1-(T37/46) (converted)
Procedure, shortened: as §1

P-P70S6K (T389) = experiment: Cell based AlphaLISA assay, inhibition of P-P70S6K (T389) in MDA-MB-468 cells (mTORC1 substrate); details: Homo sapiens, 4 h, AlphaLisa, two to four hours at 37° C., read-out: pIC50 for Inhibition of mTORC1 and mTORC2 Substrate Phosphorylation p-P70S6K-(T389) (converted)
Procedure, shortened: as §1

SMILES	IC50 (P-Akt (S473)) [nM]	IC50 (P-4E-BP1 (T37/46)) [nM]	IC50 (P-P70S6K (T389)) [nM]
CO[C@H]1C[C@@H]2CC[C@@H](C)[C@@](O)(O2)C(=O)C(=O)N2CCCC[C@H]2C(=O)O[C@H]([C@H](C)C[C@@H]2CC[C@@H](OC(=O)N3CCc4nc(N5CCN(CCOCCN6CCN(c7ncc(C(=O)N8CCc9cc(Cn%10nc(-c%11ccc%12[nH]ccc%12c%11)c%11c(N)ncnc%11%10)ccc9C8)cn7)CC6)CC5)ncc4C3)[C@H](OC)C2)CC(=O)[C@H](C)/C=C(\C)[C@@H](O)[C@@H](OC)C(=O)[C@H](C)C[C@H](C)/C=C/C=C/C=C/1C [Example 131]	3.16 to 31.6	< 3.16	< 1
CO[C@H]1C[C@@H]2CC[C@@H](C)[C@@](O)(O2)C(=O)C(=O)N2CCCC[C@H]2C(=O)O[C@H]([C@H](C)C[C@@H]2CC[C@@H](OC(=O)NCc3cnc(N4CCN(C(=O)CCOCCN5CCN(C(=O)CCC(=O)N6CCc7cc(Cn8nc(-c9ccc%10oc(N)nc%10c9)c9c(N)ncnc98)ccc7C6)CC5)CC4)nc3)[C@H](OC)C2)C[C@@H](O)[C@H](C)/C=C(\C)[C@@H](O)[C@@H](OC)C(=O)[C@H](C)C[C@H](C)/C=C/C=C/C=C/1C [Example 132]	3.16 to 31.6	< 3.16	< 1
CO[C@H]1C[C@@H]2CC[C@@H](C)[C@@](O)(O2)C(=O)C(=O)N2CCCC[C@H]2C(=O)O[C@H]([C@H](C)C[C@@H]2CC[C@@H](OC(=O)NCc3cnc(N4CCN(C(=O)CCOCCN5CCN(C(=O)CCC(=O)N6CCc7cc(Cn8nc(-c9ccc%10oc(N)nc%10c9)c9c(N)ncnc98)ccc7C6)CC5)CC4)nc3)[C@H](OC)C2)C[C@@H](OC)[C@H](C)/C=C(\C)[C@@H](O)[C@@H](OC)C(=O)[C@H](C)C[C@H](C)/C=C/C=C/C=C/1C [Example 133]	3.16 to 31.6	< 3.16	< 1
CO[C@H]1C[C@@H]2CC[C@@H](C)[C@@](O)(O2)C(=O)C(=O)N2CCCC[C@H]2C(=O)O[C@H]([C@H](C)C[C@@H]2CC[C@@H](OC(=O)NCc3cnc(N4CCN(C(=O)CCOCCN5CCN(c6ncc(C(=O)N7CCc8cc(Cn9nc(-c%10ccc%11oc(N)nc%11c%10)c%10c(N)ncnc%109)ccc8C7)cn6)CC5)[C@@H](C(=O)O)C4)nc3)[C@H](OC)C2)C[C@@H](OC)[C@H](C)/C=C(\C)[C@@H](O)[C@@H](OC)C(=O)[C@H](C)C[C@H](C)/C=C/C=C/C=C/1C [Example 134]	> 1000	< 3.16	< 1
CO[C@H]1C[C@@H]2CC[C@@H](C)[C@@](O)(O2)C(=O)C(=O)N2CCCC[C@H]2C(=O)O[C@H]([C@H](C)C[C@@H]2CC[C@@H](OC(=O)NCc3cnc(N4CCN(C(=O)CCOCCN5CCN(c6ncc(C(=O)N7CCc8cc(Cn9nc(-c%10cnc%11[nH]ccc%11c%10)c%10c(N)ncnc%109)ccc8C7)cn6)CC5)[C@@H](C(=O)O)C4)nc3)[C@H](OC)C2)CC(=O)[C@H](C)/C=C(\C)[C@@H](O)[C@@H](OC)C(=O)[C@H](C)C[C@H](C)/C=C/C=C/C=C/1C [Example 135]	> 1000	> 1000	< 1
CO[C@H]1C[C@@H]2CC[C@@H](C)[C@@](O)(O2)C(=O)C(=O)N2CCCC[C@H]2C(=O)O[C@H]([C@H](C)C[C@@H]2CC[C@@H](O)[C@H](OC)C2)CC(=O)[C@H](C)/C=C(\C)[C@@H](OC(=O)NCc2cnc(N3CCN(C(=O)CCOCCN4CCN(c5ncc(C(=O)N6CCc7cc(Cn8nc(-c9ccc%10oc(N)nc%10c9)c9c(N)ncnc98)ccc7C6)cn5)CC4)CC3)nc2)[C@@H](OC)C(=O)[C@H](C)C[C@H](C)/C=C/C=C/C=C/1C [Example 136]	3.16 to 31.6	3.16 to 31.6	< 1
